Patent US8519121B2, “Dextran for treating lung cancer” (Guangzhou Konzern Pharmaceutical Co., Ltd., priority 2008, dated 2013)

Experiments:
Format in all cases: cell-based
[1] = system: Chinese Hamster Lung Epithelial cells (CHL); assay: MTT cell proliferation, Chinese Hamster Lung Epithelial cells (CHL); details: 48 hours, 0.1 μg/ml; for A570: n = 9, X ± SD
Method: (§1) Human lung cancer cell (A549), purchased from cell center of Xiangya School of Medicine, Central South University. Human small cell lung cancer (NCl-H446) and Chinese Hamster Lung Epithelial cells (CHL), purchased from Shanghai Institute of Biochemistry and Cell Biology, Chinese Academy of Sciences. Culture condition: RPMI 1640 medium with 10% bovine serum, 37° C., 5% CO2. Take the logarithmic phase cell for the following experiment.
(§2) Weight 3.8 g KY-1-1 into 10 ml bottle, dissolve with DMSO, and then dilute with normal saline (N.S.) to 300.0 μg/ml, 100.0 μg/ml, 30.0 μg/ml, 10.0 μg/ml, 3.0 μg/ml, 1.0 μg/ml, put into 2 ml EP tube separately, preserve in 4° C.
(§3) Injection Cisplatin (DDP), purchased from Qilu Pharmaceutical Co., Ltd., 10 mg/bottle, batch number 6030052 DB, dissolve with normal saline, dilute to 100.0 μg/ml, 10.0 μg/ml and 1.0 μg/ml.
(§4) Taxol (TAX), purchased from Beijing Sihuan Pharmaceutical Technology Stock Company, 30 mg/5 ml/bottle, batch number 060830, dissolve with normal saline, dilute to 100.0 μg/ml, 10.0 μg/ml and 1.0 μg/ml. • (2) Method
(§5) Preparing suspension of human lung cancer cell (A549), human small cell lung cancer (NCl-H446) and Chinese Hamster Lung Epithelial cells (CHL), adjust to 0.5×10^4 cells/ml, seed in 96-microplate, 180 μl/hole. After cell adhesion (about 12 hours), add sample and control solution 20 μl separately into each hole, adjust the final concentration of KY-1-1 to 0.1 μg/ml, 0.3 μg/ml, 1.0 μg/ml, 3.0 μg/ml, 10.0 μg/ml and 30.0 μg/ml, and the final concentration of DDP and TAX are both 0.1 μg/ml, incubate for 48 hours, and then add MTT (5 mg/ml, MTT:PBS) 20 μl to each hole, incubate for 6 hours, remove the liquid in each hole, and then add DMSO 100 μl to each hole in order to dissolve the purple blue precipitate, then detect the absorbency (A) in 570 nm by an enzyme-labeled instrument EXL-800. Calculate the inhibition ratio (IR) with the following equation: IR(%)=(1−mean of A of dextran group/mean of A of control group)×100%.
(§6) The selective index (SI) of cytotoxicity of the dextran is calculated with the following equation: SI═IC50(CHL cells)/IC50(A549 cells or NCl-H446 cells),
(§7) wherein IC50 is calculated by Calcus Zn procedure.
(§8) Repeat the above experiment twice.
(§9) Experiment data is expressed by X±SD, and use the software SPSS 15.0 Evaluation for windows to carry out One Way ANOVA analysis, and the analysis of variance uses the LSD method and SNK method. The result is compared by Student's test, there is statistic marked difference under the condition of […].

[2] = system: human small cell lung cancer (NCl-H446); assay: MTT cell proliferation, human small cell lung cancer (NCl-H446); details: NCI-H446 cells, 48 hours, 0.1 μg/ml; for A570: n = 9, X ± SD
Method: as §1, §2, §3, §4, §5, §6, §7, §8, §9

[3] = system: human lung cancer cell (A549); assay: MTT cell proliferation, human lung cancer (A549); details: A549 cells, 48 hours, 0.1 μg/ml; for A570: n = 9, X ± SD
Method: as §1, §2, §3, §4, §5, §6, §7, §8, §9

[4] = system: human small cell lung cancer (NCl-H446); assay: Anchorage-dependent cell growth capacity, plate cloning method, NCl-H446; details: NCI-H446, plate cloning method, 7 days, 0.1 μg/ml; for Number of Colonies: n = 9, X ± SD
Method: as §1
(§10) Preparing suspension of human lung cancer cell (A549) and human small cell lung cancer (NCl-H446), adjust to 0.3×10^3 cells/ml. In each hole, cell suspension […], and sample 0.2 ml, and control solution 0.2 ml. The final concentration of KY-1-1 is 0.1 μg/ml, 0.3 μg/ml, 1.0 μg/ml, 3.0 μg/ml, 10.0 μg/ml and 30.0 μg/ml, and the final concentration of DDP and TAX are both 0.1 μg/ml, add the same volume medium into the control group. Three holes in each group, seed in 24-microplate, incubate in CO2 for 7 days. Add 95% methanol 0.5 ml into each hole, fixed for 15 minutes, and Giemsa staining for 10-30 minutes. The number of cells in a colony is more than 50, or the diameter of the colony is more than 75 μm. Count the number of colonies in each hole, calculate the mean and record it. Calculate the colony inhibition ratio (CIR) with the following equation: CIR(%)=(1−mean of number of colony of dextran group/mean of number of colony of control group)×100%.
(§11) The plate efficiency (PE) is calculated with the following equation: PE=mean of number of colony/number of seeded cells×100%,
as §7, §8, §9

[5] = system: human lung cancer cell (A549); assay: Anchorage-dependent cell growth capacity, plate cloning method, A549; details: 7 days, 0.1 μg/ml; for Number of Colonies: n = 9, X ± SD
Method: as §1, §10, §11, §7, §8, §9

[6] = system: human small cell lung cancer (NCl-H446); assay: Anchorage-independent cell growth (cell colony forming capacity in agar), NCl-H446; details: NCI-H446, colony forming in agar, 7 days, 0.1 μg/ml; for Number of Colonies: n = 9, X ± SD
Method: as §1
(§12) Take 24-microplate, add 0.6% agar medium 0.5 ml in each hole. Preparing suspension of human lung cancer cell (A549) and human small cell lung cancer (NCl-H446), adjust to 1.6×10^3 cells/ml. In each hole, cell suspension 1.6 ml, and sample 0.2 ml, and control solution 0.2 ml. The final concentration of KY-1-1 is 0.1 μg/ml, 0.3 μg/ml, 1.0 μg/ml, 3.0 μg/ml, 10.0 μg/ml and 30.0 μg/ml, and the final concentration of DDP and TAX are both 0.1 μg/ml. DDP 0.2 ml, and TAX 0.2 ml. Add the same volume medium into the control group. Three holes in each group, after mixing with 0.3% agar 0.2 ml, seed in 24-microplate 0.5 ml/hole, incubate in CO2 for 7 days. The number of cells in a colony is more than 50, or the diameter of the colony is more than 75 μm. Count the number of colonies in each hole, calculate the mean and record it. Calculate the colony inhibition ratio (CIR) with the following equation: CIR(%)=(1−mean of number of colony of dextran group/mean of number of colony of control group)×100%.
as §11, §7, §8, §9

[7] = system: human lung cancer cell (A549); assay: Anchorage-independent cell growth (cell colony forming capacity in agar), A549; details: 7 days, 0.1 μg/ml; for Number of Colonies: n = 9, X ± SD
Method: as §1, §12, §11, §7, §8, §9

Row | SMILES | IR (%) [1] [%] | A570 [1] | IR (%) [2] [%] | A570 [2] | IR (%) [3] [%] | A570 [3] | IR (%) [4] [%] | Number of Colonies [4] | IR (%) [5] [%] | Number of Colonies [5] | IR (%) [6] [%] | Number of Colonies [6] | IR (%) [7] [%] | Number of Colonies [7]
1 | N.N.[Cl][Pt][Cl] [DDP, Cisplatin] | 76.35 | 1.41 ± 0.30 | 77.89 | 0.36 ± 0.03 | 76.35 | 0.37 ± 0.03 | 78.44 | 23.33 ± 4.18 | 75.82 | 23.89 ± 4.43 | 75.98 | 17.00 ± 2.74 | 77.05 | 14.00 ± 2.00
2 | CC(=O)O[C@H]1C(=O)[C@@]2(C)[C@H]([C@H](OC(=O)c3ccccc3)[C@]3(O)C[C@H](OC(=O)[C@H](O)[C@@H](NC(=O)c4ccccc4)c4ccccc4)C(C)=C1C3(C)C)[C@]1(OC(C)=O)CO[C@@H]1C[C@@H]2O [TAX, Taxol] | 83.13 | 1.25 ± 0.14 | 83.54 | 0.27 ± 0.01 | 83.13 | 0.27 ± 0.03 | 82.34 | 19.11 ± 2.57 | 82.00 | 17.78 ± 2.05 | 84.46 | 11.00 ± 1.58 | 83.61 | 10.00 ± 1.87
